Measurements reported in patent US11766649B2, “Coating method” (ASTON PARTICLE TECHNOLOGIES LIMITED, priority 2017, dated 2023).

Assays:
Type in all cases: physicochemical
[1] = USP II basket dissolution of flucloxacillin sodium/polymer powders in pH 6.8 phosphate buffer; conditions: 250 mg dose, 37° C., 50 rpm, 60 mins, FIG. 13
Method: The dissolution rate was analysed using standard USP II dissolution apparatus using the basket assembly dissolution vessels. Standard 250 mg dose powders were investigated to mimic a patient dose, with dissolution conditions maintained at 37° C. and the basket apparatus rotated at 50 rpm in pH 6.8 phosphate buffer. Powders were placed in the basket and submerged in to the dissolution apparatus and ran over 60 mins. Samples were taken at predetermined time intervals, with each sample volume replaced with the same amount of fresh dissolution media to maintain sink conditions. The samples were filtered appropriately and analysed for drug content using HPLC apparatus at each of the time points. All results were taken in triplicate, […]

[2] = USP II basket dissolution of carbamazepine/PVP powders in distilled water; conditions: 200 mg dose, 37° C., 50 rpm, over the 4 h time period, FIG. 7
Method: (§1) The dissolution rate was analysed using standard USP II dissolution apparatus using the basket assembly dissolution vessels. Standard 200 mg dose powders were investigated to mimic a patient dose, with dissolution conditions maintained at 37° C. and the basket apparatus rotated at 50 rpm in distilled water. Powders were placed in the basket and submerged in to the dissolution apparatus and ran over 4 h. Samples were taken at predetermined time intervals, with each sample volume replaced with the same amount of fresh dissolution media to maintain sink conditions. The samples were filtered appropriately and analysed for drug content using HPLC apparatus at each of the time points. All results were taken in triplicate, and are represented in FIG. 7.

[3] = USP II basket dissolution of phenytoin/PVP powders in distilled water; conditions: 200 mg dose, 37° C., 50 rpm, 4 h, FIG. 9
Method: as §1, with “9.” for “7.”

[4] = Dissolution of carbamazepine dry coated with micronized sodium lauryl sulphate (FIG. 10)
[5] = USP II basket dissolution of piroxicam/PVP powders in 0.1N hydrochloric acid; conditions: 20 mg dose, 37° C., 50 rpm, end of the 4 h interval, FIG. 8
Method: as §1, with “20” for “200”, “0.1N hydrochloric acid.” for “distilled water.”, “8.” for “7.”

Cc1onc(-c2c(F)cccc2Cl)c1C(=O)N[C@@H]1C(=O)N2[C@@H]1SC(C)(C)[C@@H]2C(=O)O [flucloxacillin sodium]
release of flucloxacillin sodium [1]: full release within a minute

NC(=O)N1c2ccccc2C=Cc2ccccc21 [micronized carbamazepine, carbamazepine]
drug release [2]: very poor release

O=C1NC(=O)C(c2ccccc2)(c2ccccc2)N1 [phenytoin alone, phenytoin]
release [3]: 4.7%

NC(=O)N1c2ccccc2C=Cc2ccccc21 [off the shelf carbamazepine (CBZ), carbamazepine]
drug release [4]: around 38%

CN1C(C(=O)Nc2ccccn2)=C(O)c2ccccc2S1(=O)=O [control piroxicam, piroxicam]
drug release [5]: 29.7%
